Experimental data: patent US20230339854A1, “Negative Allosteric Modulation of GluN3-Containing N-Methyl-D-Aspartate Receptors” (Emory University, priority 2020, published 2023)

How the values were obtained:
GABA receptors = GABA receptors in Xenopus oocytes (selectivity); format: cell-based, rat; details: 20 μM
Description: (§1) The numbers of oocytes recorded are in parentheses.
(§2) The cDNA was linearized by restriction enzymes (Thermo Fisher Scientific, Lithuania), and the cRNA encoding the receptor subunits was synthesized from the linear template cDNA using the mMESSAGE mMACHINE kit (Invitrogen/Thermo Fisher Scientific, Lithuania). The α1β1δγ nAChR subunits were injected at a 1:1:1:1 ratio while α4 […] nAChR subunits were injected at a 1:1 ratio. The cDNAs encoding GABA and glycine subunits were provided by Dr. D. Weiss (University of Texas Health Science Center at San Antonio). The cDNAs encoding nAChR subunits were provided by Drs. R. Papke (University of Florida) and S. Heinemann (Salk Institute). The cDNA encoding the purinergic receptor was provided by Dr. R. Hume (University of Michigan).
(§3) Responses in the presence of EU1180-438 were expressed as a percent of control calculated as the average of the responses before and after EU1180-438 exposure. […]
(§4) Defolliculated Xenopus laevis oocytes (stage V-VI) were obtained from Ecocyte BioScience (Austin, Texas), or prepared from commercially available Xenopus ovaries (Xenopus 1, Dexter, MI) as previously described (Hansen, et al., Mol. Pharmacol., 2013). […] Recording electrodes were filled with 0.3-3.0 M KCl, and current responses were recorded at a holding potential of −40 mV.

glycine receptors = biological target: T1, glycine receptors (Rattus norvegicus, UniProt P07727); experiment: Glycine receptors in Xenopus oocytes (selectivity); format: cell-based; details: 20 μM
T1 construct: expressed in transfected cells; host or cells: Xenopus laevis oocytes; cDNA from Dr. D. Weiss
T1 sequence (P07727 29-457): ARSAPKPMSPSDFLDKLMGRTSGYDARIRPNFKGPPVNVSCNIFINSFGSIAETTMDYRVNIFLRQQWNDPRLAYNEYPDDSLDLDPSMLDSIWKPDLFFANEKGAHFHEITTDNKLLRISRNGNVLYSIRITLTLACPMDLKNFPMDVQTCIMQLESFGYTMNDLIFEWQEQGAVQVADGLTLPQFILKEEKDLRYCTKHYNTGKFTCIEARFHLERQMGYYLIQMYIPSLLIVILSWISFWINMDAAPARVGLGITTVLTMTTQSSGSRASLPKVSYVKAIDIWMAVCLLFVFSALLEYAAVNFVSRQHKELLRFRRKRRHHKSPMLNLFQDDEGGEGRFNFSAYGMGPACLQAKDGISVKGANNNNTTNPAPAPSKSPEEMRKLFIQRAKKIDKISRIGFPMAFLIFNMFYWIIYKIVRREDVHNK
Description: as §1, §2, §3, §4

For `COc1ccc(OCC(c2ccc(OC)cc2)N2Cc3ccccc3C2=O)cc1` (racemic) [EU1180-438, 2-(2-(4-methoxyphenoxy)-1-(4-methoxyphenyl)ethyl)isoindolin-1-one], the “activity at GABA receptors” value (GABA receptors) was “virtually no activity” and the “activity at glycine receptors” value (glycine receptors) was “virtually no activity”.
